For this experiment, the target named is PD-L1 (Homo sapiens (Human), UniProt Q9NZQ7). Kind of experiment: PD-L1 HTRF assay (PD-1/PD-L1 interaction). The class given is binding. As to conditions: PD-L1 His 6 nM, PD-1 Fc 6 nM; inhibitors 3-fold diluted from 20 μM. The protocol:
PD-L1 small molecule inhibitors were diluted by 3-fold starting from 20 μM and a final concentration of 0.001 μM and added to the well. PD-1 Fc protein was added at the final concentration of 6 nM. PD-L1 His protein, PD-L1 small molecule inhibitors, and PD1 Fc proteins were added to the well in this order, with each 5 μl volume, and were incubated for 15 minutes at room temperature. […] The plate was read using PerkinElmer Envision plate reader and data was analyzed by Prism 6 software.
A general note: Time-resolved FRET reads energy transfer from a long-lived donor to a nearby acceptor.

Sequence of PD-L1 (Q9NZQ7 19-238): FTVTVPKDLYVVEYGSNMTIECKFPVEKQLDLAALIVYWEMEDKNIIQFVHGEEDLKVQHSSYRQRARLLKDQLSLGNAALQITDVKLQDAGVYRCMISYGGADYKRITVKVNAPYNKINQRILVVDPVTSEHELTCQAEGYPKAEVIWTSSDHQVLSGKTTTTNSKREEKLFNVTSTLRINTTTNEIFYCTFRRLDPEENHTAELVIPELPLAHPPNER

Take `Cc1c(COc2cc(OCc3cncc(C#N)c3)c(C3=NCC(O)CN3)cc2Cl)cccc1-c1cccc(COc2cc(OCc3cncc(C#N)c3)c(C3=NCC(O)CN3)cc2Cl)c1C` (stereo not drawn) [Example 28, 5-[[4-chloro-5-[[3-[3-[[2-Chloro-5-[(5-cyano-3-pyridyl)methoxy]-4-(5-hydroxy-1,4,5,6-tetrahydropyrimidin-2-yl)phenoxy]methyl]-2-methyl-phenyl]-2-methyl-phenyl]methoxy]-2-(5-hydroxy-1,4,5,6-tetrahydropyrimidin-2-yl)phenoxy]methyl]pyridine-3-carbonitrile]: the IC50 was 6.7 nM.

On to `COc1cc(OCc2cccc(-c3cccc(COc4cc(OC)c(CN5CCCC[C@H]5C(=O)O)cc4Cl)c3C)c2C)c(Cl)cc1CO` [Example 30, (2S)-1-[[5-chloro-4-[[3-[3-[[2-chloro-4-(hydroxymethyl)-5-methoxy-phenoxy]methyl]-2-methyl-phenyl]-2-methyl-phenyl]methoxy]-2-methoxy-phenyl]methyl]piperidine-2-carboxylic acid], for which it took 4 nM to reach half-maximal inhibition (IC50).

Turning to `COc1cc(OCc2cccc(-c3cccc(COc4cc(OC)c(CNCCO)cc4Cl)c3C)c2C)c(Cl)cc1CNCCO` [Example 31, 2,2′-((((((2,2′-Dimethyl-[1,1′-biphenyl]-3,3′-diyl)bis(methylene))bis(oxy))bis (5-chloro-2-methoxy-4,1-phenylene))bis(methylene))bis(azanediyl))bis(ethan-1-ol)], the half-maximal inhibitory concentration (IC50) was 1 nM.

Compound `Cc1c(NC(=O)c2ccc(CO)cn2)cccc1-c1cccc(NC(=O)c2ccc(CO)cn2)c1C` [Example 32, 5-(Hydroxymethyl)-N-[3-[3-[[5-(hydroxymethyl)pyridine-2-carbonyl]amino]-2-methyl-phenyl]-2-methyl-phenyl]pyridine-2-carboxamide] registered an IC50 of 3.2 nM.

As for `Cc1c(NC(=O)c2ccc(CNCCO)cn2)cccc1-c1cccc(OCCCN2CCC(O)CC2)c1C` [Example 33, 5-[(2-hydroxyethylamino)methyl]-N-[3-[3-[3-(4-hydroxy-1-piperidyl)propoxy]-2-methyl-phenyl]-2-methyl-phenyl]pyridine-2-carboxamide], half-maximal inhibition (IC50) required 3.7 nM.

Compound `Cc1c(NC(=O)c2ccc(CNCCO)cn2)cccc1-c1cccc(NC(=O)c2ccc(CNCCO)cn2)c1C` [Example 34, 5-[(2-Hydroxyethylamino)methyl]-N-[3-[3-[[5-[(2-hydroxyethylamino)methyl]pyridine-2-carbonyl]amino]-2-methyl-phenyl]-2-methyl-phenyl]pyridine-2-carboxamide] returned an IC50 of 1 nM.

In turn, `Cc1c(NC(=O)c2ccc(C3=NCCC(C(=O)O)N3)cn2)cccc1-c1cccc(NC(=O)c2ccc(C3=NCCC(C(=O)O)N3)cn2)c1C` (stereo not drawn) [Example 35, 2-[6-[[3-[3-[[5-(4-Carboxy-1,4,5,6-tetrahydropyrimidin-2-yl)pyridine-2-carbonyl]amino]-2-methyl-phenyl]-2-methyl-phenyl]carbamoyl]-3-pyridyl]-1,4,5,6-tetrahydropyrimidine-4-carboxylic acid] registered an IC50 of 0.3 nM.

For `Cc1c(NC(=O)c2ccc(CNCCO)cn2)cccc1-c1cccc(NC(=O)c2ccc(CN3CC[C@@H](O)C3)cn2)c1C` [Example 37, (R)-5-(((2-hydroxyethyl)amino)methyl)-N-(3′-(5-((3-hydroxypyrrolidin-1-yl)methyl)picolinamido)-2,2′-dimethyl-[1,1′-biphenyl]-3-yl)picolinamide], the IC50 stood at 0.8 nM.

For the compound `Cc1c(NC(=O)c2ccc(CNCCO)cn2)cccc1-c1cccc(NC(=O)c2ccc(CN(C)CCO)cn2)c1C` [Example 38, 5-(((2-hydroxyethyl)-(methyl)amino)methyl)-N-(3′-(5-(((2-hydroxyethyl)amino)methyl)picolinamido)-2,2′-dimethyl-[1,1′-biphenyl]-3-yl)picolinamide], the IC50 was 0.9 nM.

Usually IC50 stands for the midpoint of a concentration-inhibition curve.
